Source: patent publication US9212168B2 (priority 2011, dated 2015)

Columns and labels:
[1] = tested on: HCV genotype 1a Y93H resistant mutant replicon; assay: Replicon assay against resistant mutant 1a Y93H (transient transfection); assay type: cell-based; conditions: Hepatitis C virus, read-out: Genotype 1a Y93H
Protocol: Assay 3: Replicon Assays Against Resistant Mutants […]
Potencies of test compounds against additional mutations of interest were determined using transient transfection assays. These mutants included genotype 1a Y93C, Y93H, M28T, Q30E, Q30K, L31M, and Y93N. The mutation was first introduced into the parental plasmid by site-directed mutagenesis. The replicon plasmid was then linearized and in vitro transcribed to RNA. The RNA was used to transiently transfect Huh-LUNET cells (obtained from ReBLikon GmbH, Schriesheim, Germany) by electroporation, and the potencies of test compounds against the mutants were determined as previously described.

[2] = tested on: HCV genotype 3a NS5A chimeric replicon; assay: Replicon assay against NS5A sequence of genotype 3a, intergenotypic chimera; assay type: cell-based; conditions: Hepatitis C virus, read-out: Genotype 3a
Protocol: (§1) Assay 4: Replicon Assays Against NS5A Sequences of Other Genotypes
(§2) Potencies of test compounds against NS5A sequences of other genotypes were determined by creating intergenotypic chimeras. The entire NS5A gene from genotypes 2a, 2b, 3a, 4a, 5a, and 6a, or the nucleotide sequence encoding amino acids 11-118 of NS5A, was subcloned into a genotype 1b replicon. For genotype 2a, intergenotypic chimeras with both the JFH and the J6 strain were created. […] Since the majority of genotype 2a sequences in public databases contain the L31M sequence variant, the use of the J6 genotype 2a sequence may better reflect the antiviral potency of NS5A inhibitors.
(§3) These chimeric replicon plasmids were then linearized and in vitro transcribed to RNA. The RNA was used to transiently or stably transfect Huh-LUNET cells by electroporation, and the potencies of test compounds against the chimeras were determined as previously described.

HCV genotype 1b replicon = HCV genotype 1b replicon assay (Renilla luciferase readout); assay type: cell-based, hepatitis C virus; conditions: Hepatitis C virus, read-out: Genotype 1b
Procedure, shortened: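 Huh7-derived APC144 subgenomic replicon cells carrying Renilla luciferase–NS3-NS5B, seeded 10,000/well without G418, then treated with compound dose-responses for 48 h at 37 °C (0.5% DMSO final). Luciferase signal fitted by 4-parameter model to EC50, reported as pEC50.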

HCV genotype 1a replicon = HCV genotype 1a replicon assay (NS3 protease activity readout); assay type: cell-based, hepatitis C virus; conditions: Hepatitis C virus, read-out: Genotype 1a, HCV genotype 1a replicon
Procedure, shortened: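 Genotype 1a subgenomic replicon cells (APC89, Huh7.5) were treated with compound dose-responses in G418-free medium, 0.5% DMSO final, for 48 or 72 hours at 37° C. Lysate NS3/4a protease activity measured with 15 μM FRET substrate, 20 min at 37° C (ex 340/em 509 nm); EC50 by 4-parameter fit.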

[3] = tested on: HCV genotype 2a (J6 strain) NS5A chimeric replicon; assay: Replicon assay against NS5A sequence of genotype 2a (J6 strain), intergenotypic chimera; assay type: cell-based; conditions: Hepatitis C virus, read-out: Genotype 2a (J6)
Protocol: as §1, §2, §3

Structure (SMILES) | EC50 [1] [nM] | EC50 [2] [nM] | EC50 (HCV genotype 1b replicon) [nM] | EC50 (HCV genotype 1a replicon) [nM] | EC50 [3] [nM]
CNC(=O)N1C[C@@H](C)N(c2ccc(C(=O)Nc3cc(OC(F)(F)F)c(-c4ccc(-c5c[nH]c([C@@H]6C[C@H](C)CN6C(=O)[C@@H](NC(=O)OC)C(C)C)n5)cc4)cc3Cl)cn2)C[C@@H]1C [Example 1, ((S)-1-{(2S,4S)-2-[4-(5′-Chloro-4′-{[6-((2R,5S)-2,5-dimethyl-4-methylcarbamoyl-piperazin-1-yl)-pyridine-3-carbonyl]-amino}-2′-trifluoromethoxy-biphenyl-4-yl)-1H-imidazol-2-yl]-4-methyl-pyrrolidine-1-carbonyl}-2-methyl-propyl)-carbamic acid methyl ester] | 10 to 1000 | 10 to 1000 | < 0.1 | < 0.1 | 10 to 1000
COC(=O)N[C@H](C(=O)N1CC2(C[C@H]1c1nc(-c3ccc(-c4ccc(NC(=O)c5ccc(N6CCN(C(=O)[C@H]7CC7(C)C)C[C@H]6C)nc5)cc4OC(F)(F)F)cc3)c[nH]1)OCCO2)C(C)C [Example 4, Methyl (S)-1-((S)-8-(4-(4′-(6-((R)-4-((S)-2,2-dimethylcyclopropanecarbonyl)-2-methylpiperazin-1-yl)nicotinamido)-2′-(trifluoromethoxy)biphenyl-4-yl)-1H-imidazol-2-yl)-1,4-dioxa-7-azaspiro[4.4]nonan-7-yl)-3-methyl-1-oxobutan-2-ylcarbamate] | 0.1 to 1 | 1 to 10 | < 0.1 | < 0.1 | 1 to 10
COC(=O)N[C@H](C(=O)N1C[C@@H](C)C[C@H]1c1nc(-c2ccc(-c3ccc(C(=O)Nc4ccc(N5CCN(C(=O)[C@H]6CC6(C)C)C[C@H]5C)nc4)cc3OC(F)(F)F)cc2)c[nH]1)C(C)C [Example 8, ((S)-1-{(2S,4S)-2-[4-(4′-{6-[(R)-4-((S)-2,2-Dimethyl-cyclopropanecarbonyl)-2-methyl-piperazin-1-yl]-pyridin-3-ylcarbamoyl}-2′-trifluoromethoxy-biphenyl-4-yl)-1H-imidazol-2-yl]-4-methyl-pyrrolidine-1-carbonyl}-2-methyl-propyl)-carbamic acid methyl ester] | 10 to 1000 | 10 to 1000 | < 0.1 | < 0.1 | 10 to 1000
COC(=O)N[C@H](C(=O)N1C[C@@H](C)C[C@H]1c1nc(-c2ccc(-c3cc(Cl)c(NC(=O)c4ccc(N5CCN(C(=O)C(C)(C)C)C[C@H]5C)nc4)cc3OC(F)(F)F)cc2)c[nH]1)C(C)C [Example 10, [(S)-1-((2S,4S)-2-{4-[5′-Chloro-4′-({6-[(R)-4-(2,2-dimethyl-propionyl)-2-methyl-piperazin-1-yl]-pyridine-3-carbonyl}-amino)-2′-trifluoromethoxy-biphenyl-4-yl]-1H-imidazol-2-yl}-4-methyl-pyrrolidine-1-carbonyl)-2-methyl-propyl]-carbamic acid methyl ester] | 1 to 10 | 1 to 10 | < 0.1 | < 0.1 | 1 to 10
COC(=O)N[C@H](C(=O)N1C[C@@H](C)C[C@H]1c1nc(-c2ccc(-c3cc(F)c(NC(=O)c4ccc(N5CCN(C(=O)C(C)(C)C)C[C@H]5C)nc4)cc3OC(F)(F)F)cc2)c[nH]1)C(C)C [Example 11, [(S)-1-((2S,4S)-2-{4-[4′-({6-[(R)-4-(2,2-Dimethyl-propionyl)-2-methyl-piperazin-1-yl]-pyridine-3-carbonyl}-amino)-5′-fluoro-2′-trifluoromethoxy-biphenyl-4-yl]-1H-imidazol-2-yl}-4-methyl-pyrrolidine-1-carbonyl)-2-methyl-propyl]-carbamic acid methyl ester] | 10 to 1000 | 1 to 10 | < 0.1 | < 0.1 | 1 to 10
COC(=O)N[C@H](C(=O)N1C[C@@H](C)C[C@H]1c1nc(-c2ccc(-c3ccc(C(=O)Nc4ccc(N5CCN(C(=O)C(C)(C)C)C[C@H]5C)nc4)cc3OC(F)(F)F)cc2)c(Cl)[nH]1)C(C)C [Example 12, ((S)-1-{(2S,4S)-2-[5-Chloro-4-(4′-{6-[(R)-4-(2,2-dimethyl-propionyl)-2-methyl-piperazin-1-yl]-pyridin-3-ylcarbamoyl}-2′-trifluoromethoxy-biphenyl-4-yl)-1H-imidazol-2-yl]-4-methyl-pyrrolidine-1-carbonyl}-2-methyl-propyl)-carbamic acid methyl ester] | 1 to 10 | 1 to 10 | < 0.1 | < 0.1 | 1 to 10
COC(=O)N[C@H](C(=O)N1C[C@@H](OC)C[C@H]1c1nc(-c2ccc(-c3cc(Cl)c(NC(=O)c4ccc(N5CCN(C(=O)C(C)(C)C)C[C@H]5C)nc4)cc3OC(F)(F)F)cc2)c[nH]1)C(C)C [Example 13] | 1 to 10 | 0.1 to 1 | < 0.1 | < 0.1 | 0.1 to 1
COC(=O)N[C@H](C(=O)N1C[C@@H](C)C[C@H]1c1nc(-c2ccc(-c3cc(Cl)c(NC(=O)c4ccc(N5CCN(C(=O)C(C)(C)C)C[C@H]5C)nc4)cc3OC(F)(F)F)cc2)c[nH]1)C1CCOCC1 [Example 14] | 1 to 10 | 0.1 to 1 | < 0.1 | < 0.1 | 0.1 to 1
COC(=O)N[C@H](C(=O)N1C[C@@H](OC)C[C@H]1c1nc(-c2ccc(-c3cc(Cl)c(NC(=O)c4ccc(N5CCN(C(=O)C(C)(C)C)C[C@H]5C)nc4)cc3OC(F)(F)F)cc2)c[nH]1)C1CCOCC1 [Example 15] | 1 to 10 | 0.1 to 1 | < 0.1 | < 0.1 | 0.1 to 1
COC(=O)N[C@H](C(=O)N1C[C@@H](OC)C[C@H]1c1nc(-c2ccc(-c3cc(Cl)c(NC(=O)c4ccc(N5CCN(C(=O)C(C)(C)CO)C[C@H]5C)nc4)cc3OC(F)(F)F)cc2)c[nH]1)C1CCOCC1 [Example 16, [(S)-2-((2S,4S)-2-{4-[5′-Chloro-4′-({6-[(R)-4-(3-hydroxy-2,2-dimethyl-propionyl)-2-methyl-piperazin-1-yl]-pyridine-3-carbonyl}-amino)-2′-trifluoromethoxy-biphenyl-4-yl]-1H-imidazol-2-yl}-4-methoxy-pyrrolidin-1-yl)-2-oxo-1-(tetrahydro-pyran-4-yl)-ethyl]-carbamic acid methyl ester] | 1 to 10 | 1 to 10 | < 0.1 | < 0.1 | 1 to 10
COC(=O)N[C@H](C(=O)N1C[C@@H](C(N)=O)C[C@H]1c1nc(-c2ccc(-c3cc(Cl)c(NC(=O)c4ccc(N5CCN(C(=O)C(C)(C)C)C[C@H]5C)nc4)cc3OC(F)(F)F)cc2)c[nH]1)C(C)C [Example 18, [(S)-1-((2S,4S)-4-Carbamoyl-2-{4-[5′-chloro-4′-({6-[(R)-4-(2,2-dimethyl-propionyl)-2-methyl-piperazin-1-yl]-pyridine-3-carbonyl}-amino)-2′-trifluoromethoxy-biphenyl-4-yl]-1H-imidazol-2-yl}-pyrrolidine-1-carbonyl)-2-methyl-propyl]-carbamic acid methyl ester] | 1 to 10 | 1 to 10 | < 0.1 | < 0.1 | 0.1 to 1
COC(=O)N[C@H](C(=O)N1C[C@@H](C)C[C@H]1c1nc(-c2ccc(-c3cc(Cl)c(C(=O)Nc4ccc(N5CCN(C(=O)C(C)(C)C)C[C@H]5C)nc4)cc3OC(F)(F)F)cc2)c[nH]1)C1CCOCC1 [Example 19, Methyl ((S)-2-((2S,4S)-2-(4-(5′-chloro-4′-((6-((R)-2-methyl-4-pivaloylpiperazin-1-yl)pyridin-3-yl)carbamoyl)-2′-(trifluoromethoxy)-[1,1′-biphenyl]-4-yl)-1H-imidazol-2-yl)-4-methylpyrrolidin-1-yl)-2-oxo-1-(tetrahydro-2H-pyran-4-yl)ethyl)carbamate] | 10 to 1000 | 1 to 10 | < 0.1 | < 0.1 | 1 to 10
COC(=O)N[C@H](C(=O)N1C[C@@H](C)C[C@H]1c1nc(-c2ccc(-c3c(Cl)cc(C(=O)Nc4ccc(N5CCN(C(=O)C(C)(C)C)C[C@H]5C)nc4)cc3OC(F)(F)F)cc2)c[nH]1)C1CCOCC1 [Example 20, Methyl ((S)-2-((2S,4S)-2-(4-(2′-chloro-4′-((6-((R)-2-methyl-4-pivaloylpiperazin-1-yl)pyridin-3-yl)carbamoyl)-6′-(trifluoromethoxy)-[1,1′-biphenyl]-4-yl)-1H-imidazol-2-yl)-4-methylpyrrolidin-1-yl)-2-oxo-1-(tetrahydro-2H-pyran-4-yl)ethyl)carbamate] | 1 to 10 | 1 to 10 | < 0.1 | < 0.1 | 1 to 10
